According to PubChem BioAssay AID330 (DTP/NCI, 2004):
Several values for one entry are separate records, joined by “and”; a condition that tells them apart may be missing. Equal values may be shown once. Toxic doses and inconclusive results are not listed. The calls were made as follows: active = survival T/C of 150% or more; inactive = T/C below 125% in these data.

System: P388 leukemia ip, CD2F1 mice, survival T/C
Assay: NCI In Vivo Anticancer Drug Screen. Data for tumor model P388 Leukemia (intraperitoneal) in CD2F1 (CDF1) mice
Details: endpoint: median survival time, higher = longer survival
How it was run: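 Mice carrying the transplanted tumor received test compound or vehicle. Survival was recorded in each group, and the value is the treated-group measurement divided by that of the vehicle-treated control group.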

[1] = dose: 50.0 mg/kg/injection, schedule: Q01DX005 (ip), vehicle: saline with Tween-80
[2] = dose: 100.0 mg/kg/injection, schedule: Q01DX005 (ip), vehicle: saline with Tween-80
[3] = dose: 200.0 mg/kg/injection, schedule: Q01DX005 (ip), vehicle: saline with Tween-80
[4] = dose: 60.0 mg/kg/injection, schedule: Q01DX005 (ip), vehicle: saline with Tween-80
[5] = dose: 25.0 mg/kg/injection, schedule: Q01DX009 (ip), vehicle: saline with Tween-80
[6] = dose: 50.0 mg/kg/injection, schedule: Q01DX009 (ip), vehicle: saline with Tween-80
[7] = dose: 100.0 mg/kg/injection, schedule: Q01DX009 (ip), vehicle: saline with Tween-80

Measured: T/C

CS/C(=C1/C(=O)N(c2ccccc2)N=C1C)N1CC1
inactive: dose: 6.25 mg/kg/injection, schedule: Q04DX003 (ip), vehicle: Klucel (hydroxypropylcellulose) (HPC) 99 % of control | dose: 12.5 mg/kg/injection, schedule: Q04DX003 (ip), vehicle: Klucel (hydroxypropylcellulose) (HPC) 100 % of control | dose: 25.0 mg/kg/injection, schedule: Q04DX003 (ip), vehicle: Klucel (hydroxypropylcellulose) (HPC) 102 % of control and 109 % of control | dose: 50.0 mg/kg/injection, schedule: Q04DX003 (ip), vehicle: Klucel (hydroxypropylcellulose) (HPC) 90 % of control

NCCCCC(C(=O)NC(Cc1ccccc1)C(=O)O)N(C(=O)OCc1ccccc1)C(=O)OCc1ccccc1 (stereo unspecified)
inactive: [1] 96 % of control | [2] 101 % of control | [3] 92 % of control

C(=C\c1ccc(-c2nc3ccccc3o2)cc1)/c1ccc(-c2nc3ccccc3o2)cc1
inactive: dose: 50.0 mg/kg/injection, schedule: Q01DX009 (ip), vehicle: Klucel (hydroxypropylcellulose) (HPC) 100 % of control | dose: 100.0 mg/kg/injection, schedule: Q01DX009 (ip), vehicle: Klucel (hydroxypropylcellulose) (HPC) 101 % of control | dose: 200.0 mg/kg/injection, schedule: Q01DX009 (ip), vehicle: Klucel (hydroxypropylcellulose) (HPC) 102 % of control

O=C(Nc1ccc(Cl)cc1)Nc1nnc(-c2ccc(F)cc2)o1
inactive: dose: 15.0 mg/kg/injection, schedule: Q01DX005 (ip), vehicle: saline with Tween-80 100 % of control | dose: 30.0 mg/kg/injection, schedule: Q01DX005 (ip), vehicle: saline with Tween-80 91 % of control | [4] 90 % of control

Cc1c(C(=O)O)nc(-c2ccc3c(n2)C(=O)C(N)=CC3=O)c2[nH]c3ccccc3c12
inactive: dose: 0.1 mg/kg/injection, schedule: Q01DX009 (ip), vehicle: distilled water + Tween-80 + alcohol 110 % of control | dose: 0.2 mg/kg/injection, schedule: Q01DX009 (ip), vehicle: distilled water + Tween-80 + alcohol 116 % of control | dose: 0.4 mg/kg/injection, schedule: Q01DX009 (ip), vehicle: distilled water + Tween-80 + alcohol 112 % of control | dose: 0.8 mg/kg/injection, schedule: Q01DX009 (ip), vehicle: distilled water + Tween-80 + alcohol 113 % of control

CCOP(=O)(OCC)C1CCCN2CCc3c([nH]c4ccccc34)C12 (stereo unspecified)
inactive: dose: 12.5 mg/kg/injection, schedule: Q01DX009 (ip), vehicle: saline 98 % of control | dose: 25.0 mg/kg/injection, schedule: Q01DX009 (ip), vehicle: saline 96 % of control | dose: 50.0 mg/kg/injection, schedule: Q01DX009 (ip), vehicle: saline 100 % of control and 89 % of control | dose: 200.0 mg/kg/injection, schedule: Q01DX009 (ip), vehicle: saline 100 % of control

CN1CCc2c1c1c(c3c4ccccc4n(C)c23)N(C)CC1
inactive: dose: 6.25 mg/kg/injection, schedule: Q01DX005 (ip), vehicle: Klucel (hydroxypropylcellulose) (HPC) 103 % of control | dose: 12.5 mg/kg/injection, schedule: Q01DX005 (ip), vehicle: Klucel (hydroxypropylcellulose) (HPC) 104 % of control | dose: 25.0 mg/kg/injection, schedule: Q01DX005 (ip), vehicle: Klucel (hydroxypropylcellulose) (HPC) 107 % of control

Nc1nc(N)nc(-c2cccs2)n1
inactive: [5] 92 % of control | [6] 101 % of control | dose: 50.0 mg/kg/injection, schedule: Q04DX002 (ip), vehicle: saline with Tween-80 92 % of control | [7] 100 % of control | dose: 100.0 mg/kg/injection, schedule: Q04DX002 (ip), vehicle: saline with Tween-80 90 % of control | dose: 200.0 mg/kg/injection, schedule: Q04DX002 (ip), vehicle: saline with Tween-80 106 % of control

COc1cc2c(O)cc(C(=O)O)c(-c3cc(OC)c(OC)c(OC)c3)c2cc1OC
inactive: [1] 98 % of control | [2] 103 % of control | [3] 100 % of control

CC(/C=N/Nc1ccccc1)=N\N=c1/scc(-c2ccc(Br)cc2)n1-c1ccc(Cl)cc1
inactive: dose: 12.5 mg/kg/injection, schedule: Q01DX001 (ip), vehicle: saline with Tween-80 98 % of control | dose: 25.0 mg/kg/injection, schedule: Q01DX001 (ip), vehicle: saline with Tween-80 89 % of control | dose: 50.0 mg/kg/injection, schedule: Q01DX001 (ip), vehicle: saline with Tween-80 86 % of control

Cc1ccc(S(=O)(=O)N(Cc2ccccc2)S(=O)(=O)c2ccc(C)cc2)cc1
inactive: [5] 110 % of control | [6] 118 % of control | [7] 101 % of control

CC12CCC3C(CCC4=CC(OC5OCC(O)C(O)C5O)CCC43C=O)C1(O)CCC2C1=CC(=O)OC1 (stereo unspecified)
inactive: dose: 1.0 mg/kg/injection, schedule: Q01DX009 (ip), vehicle: Klucel (hydroxypropylcellulose) (HPC) 99 % of control | dose: 2.0 mg/kg/injection, schedule: Q01DX009 (ip), vehicle: Klucel (hydroxypropylcellulose) (HPC) 105 % of control | dose: 4.0 mg/kg/injection, schedule: Q01DX009 (ip), vehicle: Klucel (hydroxypropylcellulose) (HPC) 97 % of control | dose: 8.0 mg/kg/injection, schedule: Q01DX009 (ip), vehicle: Klucel (hydroxypropylcellulose) (HPC) 108 % of control

COc1c(Br)cnc2ccccc12
inactive: dose: 12.5 mg/kg/injection, schedule: Q01DX009 (ip), vehicle: distilled water + Tween-80 96 % of control | dose: 25.0 mg/kg/injection, schedule: Q01DX009 (ip), vehicle: distilled water + Tween-80 96 % of control | dose: 50.0 mg/kg/injection, schedule: Q01DX009 (ip), vehicle: distilled water + Tween-80 102 % of control | dose: 100.0 mg/kg/injection, schedule: Q01DX009 (ip), vehicle: distilled water + Tween-80 102 % of control | dose: 200.0 mg/kg/injection, schedule: Q01DX009 (ip), vehicle: distilled water + Tween-80 93 % of control

Cn1c2c(c3cc(I)ccc31)CCc1cncnc1-2
inactive: dose: 37.5 mg/kg/injection, schedule: Q01DX001 (ip), vehicle: Klucel (hydroxypropylcellulose) (HPC) 102 % of control | dose: 75.0 mg/kg/injection, schedule: Q01DX001 (ip), vehicle: Klucel (hydroxypropylcellulose) (HPC) 91 % of control | dose: 150.0 mg/kg/injection, schedule: Q01DX001 (ip), vehicle: Klucel (hydroxypropylcellulose) (HPC) 91 % of control

O=C(Cc1nc2ccccc2nc1CC(=O)c1cccnc1)c1cccnc1
inactive: [4] 102 % of control | dose: 120.0 mg/kg/injection, schedule: Q01DX005 (ip), vehicle: saline with Tween-80 93 % of control | dose: 240.0 mg/kg/injection, schedule: Q01DX005 (ip), vehicle: saline with Tween-80 93 % of control

COC(=O)c1cc(=O)n(Cc2ccco2)c(=Nc2ccccc2)s1
inactive: [1] 98 % of control | [2] 97 % of control | [3] 94 % of control

CN1c2ccccc2C2CCCCC21 (stereo unspecified)
inactive: [1] 100 % of control | [2] 99 % of control | [3] 111 % of control

O=C1Nc2cnc(Cl)nc2Nc2cc(Cl)ccc21
inactive: dose: 50.0 mg/kg/injection, schedule: Q01DX005 (ip), vehicle: Klucel (hydroxypropylcellulose) (HPC) 95 % of control | dose: 100.0 mg/kg/injection, schedule: Q01DX005 (ip), vehicle: Klucel (hydroxypropylcellulose) (HPC) 95 % of control | dose: 200.0 mg/kg/injection, schedule: Q01DX005 (ip), vehicle: Klucel (hydroxypropylcellulose) (HPC) 92 % of control

O=C(NC(=O)C(F)(F)F)Nc1ccc(Cl)cc1
inactive: [6] 99 % of control | [7] 105 % of control

CC(=O)Nc1ccc(S(=O)(=O)/C(=C\c2ccc(Cl)o2)c2ccc([N+](=O)[O-])o2)cc1
inactive: dose: 50.0 mg/kg/injection, schedule: Q01DX009 (ip), vehicle: suspension in saline 86 % of control | dose: 100.0 mg/kg/injection, schedule: Q01DX009 (ip), vehicle: suspension in saline 88 % of control | dose: 200.0 mg/kg/injection, schedule: Q01DX009 (ip), vehicle: suspension in saline 92 % of control

COC(=O)C12N=NN(c3ccccc3)C1(C(=O)OC)C1CCC2C1 (stereo unspecified)
inactive: [7] 95 % of control | dose: 200.0 mg/kg/injection, schedule: Q01DX009 (ip), vehicle: saline with Tween-80 100 % of control | dose: 400.0 mg/kg/injection, schedule: Q01DX009 (ip), vehicle: saline with Tween-80 90 % of control
